# Patent US6897319B2, “Useful aroyl pyrrole heteroaryl methanones and methanols” (Ortho-McNeil Pharmaceutical, Inc., priority 2001, dated 2005)
# Columns and labels:
# Type in all cases: in vivo
# [1] = test system: carrageenan-induced thermal hyperalgesia; assay: Carrageenan Paw Hyperalgesia Test; conditions: mouse, orally 30 mg per Kg, 90 minutes following oral dosing
# Source text: Procedure for Testing Hyperalgesic Effect
# The procedure used to detect the antihyperalgesic activity of a compound of the present invention for which there is a good correlation with human efficacy is the Carrageenan Paw Hyperalgesia Test (as described in Sammons, et al., Brain Research, 2000, 876, 48-54).
# Male, CD-1 mice (Charles River Laboratories) weighing 22-30 g each at the time of testing are housed in a climate-controlled, virus free environment for at least 7 days prior to testing. Food and water are available ad libitum up to test time.
# Test mice are […] by injecting an irritant (e.g., 0.02 mL of a 1.0% carrageenan solution in 0.9% saline) subcutaneously into the subplantar tissue of one of the hind paws to stimulate an acute inflammatory reaction. The response of the animal following carrageenan injection is subsequently evaluated at a fixed later time and verified to be hyperalgesic relative to a baseline response obtained immediately prior to carrageenan injection.
# The mice were dosed orally with either Compound 1 dissolved in a suspension of 20% hydroxypropyl beta cyclodextrin in distilled water or with vehicle alone at a fixed time following carrageenan injection. […] Response latencies were subsequently evaluated at fixed times following oral dosing to assess reversal of hyperalgesia caused by treatment with Compound 1 as compared to vehicle treatment. […]
# [2] = test system: carrageenan-induced paw swelling; assay: Carrageenan Paw Edema Model; conditions: rat, 100 mg/kg p.o., 2 hours post carrageenan administration
# Source text: Procedure for Testing Antiinflammatory Response
# The procedure used to detect the antiinflammatory activity of a compound of the present invention for which there is a good correlation with human efficacy is the Carrageenan Paw Edema Model (as described in Levy, L., Carrageenan Paw Edema in the Mouse, Life Sci., 1969, 8, 11, 601-6).
# Male, Sprague-Dawley rats (Charles River Laboratories) 175-200 g are housed in a climate-controlled, virus free environment for at least 5 days prior to testing.
# Carrageenan is prepared in saline (0.5% carrageenan solution in 0.9% saline) and injected in a 0.1 mL volume into the footpad of the rat. Test compound is administered orally by gavage 30-60 minutes prior to footpad challenge. Paws are dipped into a mercury plethysmograph edema computer (Buxco Electronics) and the foot displacement is recorded at 0 time and at various times after challenge with carrageenan. Rats treated with test compound are compared to vehicle controls for any inhibition of carrageenan induced paw swelling.
# The % Inhibition (% I) by a compound tested was calculated according to the formula: %I=100−[100×(TCPV/VCPV)]; wherein TCPV is defined as the mean Change in Paw Volume in the Treated group and VCPV is the mean Change in Paw Volume in the Vehicle group.
# [3] = test system: maximal electroshock extensor seizure; assay: Mouse maximal electroshock test (MES) anticonvulsant model; conditions: po, orally administered, read-out: MES Response ED50
# Experimental: Procedure for Testing in Mouse Anticonvulsant Model
# The activity of the present compounds as anticonvulsant agents was determined using a standard mouse “maximal electroshock test” (MES). In this test, activity was indicated by a block of the […] extensor seizure, as described by Swinyard, et al. (J. Pharmacol. Exptl. Therap., 1952, 106, 319). A more recent description of current anticonvulsant drug screening is given in Swinyard, et al., in Epilepsia, 1978, 19, 409.
# The anticonvulsant activity of the instant compounds is shown in Table 5 and was evaluated according to the Swinyard (1952) method. The abbreviations used in the table have the following meanings: mpk refers to the dose orally administered in “mg per Kg;” and, ED50 refers to the “50% Effective Dose” orally administered in mpk. The values marked by an * represent the number of mice protected/number of mice tested; therefore, a value of 3/3 represents that the number of mice protected matched the number of mice tested at the indicated dose.
structure (smiles),measurement,setting,value
"Cn1cc(C(=O)c2ccncc2)cc1C(=O)c1ccc(Cl)cc1 [Cpd 1, [5-(4-Chlorobenzoyl)-1-methyl-1H-pyrrol-3-yl]pyridin-4-ylmethanone]",% Recovery (reversal of hyperalgesia),[1],84%
same,% inhibition of carrageenan-induced paw swelling,[2],35%
same,ED50,[3],157 mg/kg
